# From patent publication US7704723B2, “Isolation and characterization of novel clostridial species” (The Board of Regents For Oklahoma State University, priority 2006, dated 2010)
# Where a name gives a salt, the structure may show the parent alone.
# Legend:
# strain P11 [1] = assay: Trace metals elimination (0x) and addition (10x) in CO medium; format: cell-based, Clostridium ragsdalei; conditions: for Acetate production on elimination of the metal / CO metabolism on elimination of the metal / Increase in solvent to acid ratio on elimination of the metal: 0x metal in COM; for CO metabolism at increased level of the metal: 10x metal in COM, especially after a 48 hour feeding
# Method: Bacterial Strain and Cultivation Media. Clostridial strain P11 was used throughout the study. […] The growth temperature was 37° C. […] Analytical methods. […] Milton Roy) in aluminum seal tubes (Balch & Wolfe, 1976). […] Hydrogen ion concentration was measured by electrode. Trace metals. […] Triplicate tubes of unamended (1×) and amended (0× and 10×) media were inoculated with strain P11 where each of these individual trace metals were added to or eliminated from the COM at 10× and 0× the original metal concentration. The cultures were fed every 48 hours with CO. This was also completed in duplicate in 160 mL serum bottles to simulate small scale batch conditions. Stock solutions were prepared for each of the above metals and added during the media preparation before boiling and degassing. […] In order to adapt cells to the higher concentrations of metals, at least 2 transfers were made for each set-up. This experiment was performed in triplicate and growth was measured over 7 days after which pH and ethanol concentration analyses were completed.
# [2] = test system: Clostridium ragsdalei strain P11; assay: Growth of strain P11 on organic and gaseous substrates as sole carbon and energy sources; format: cell-based; conditions: for Substrate utilization, C. ragsdalei: strain P11, growth on substrate as sole carbon and energy source, final OD600
# Method: (§1) Except for the deletion of NaHCO3 and an initial pH 6.3, growth on organic and gaseous substrates was performed as previously described (Tanner et. al., 1993). Resazurin (1 mg/L) was used as the redox indicator. Purified agar was added to the medium at a concentration of 2% for colony morphology description (Table 5). Heat labile substrates were filter sterilized (not autoclaved) and added from sterile stock solutions to a final concentration of 5 g/L before inoculation. The optimum temperature and pH (initial pH) was determined in medium containing fructose as the substrate. For determination of the optimum pH, media was buffered with HOMOPIPES (homopiperazine-N,N′-bis-2-[ethanesulfonic acid] (Research Organics, Cleveland, Ohio), MES (2-[N-morpholino]ethanesulfonic acid), or TES (N-tris [hydroxymethyl]methyl-2-aminoethanesulfonic acid) at (1.0 g/L). A 0.1 ml (˜2%) inoculum of fructose-grown cells was used to initiate growth. All media components used in these experiments were obtained from Sigma unless otherwise noted (Sigma Chemical Co., St. Louis, Mo.).
# (§2) Analytical methods. […] For the substrate malate, utilization was analyzed by HPLC (“high-performance liquid chromatography”) equipped with a UV detector set at 214 nm using a Alltech, Prevail Organic Acid column (4.6×150 mm, 5 μm; Alltech, Deerfield, Mich.) with a mobile phase of 25 mM KH2PO4, pH 2.5 and 10% (v/v) methanol.
# strain P11 [3] = assay: microbe, parasite or virus in culture
# Method: (§3) Bacterial Strain and Cultivation Media. Clostridial strain P11 was used throughout the study. Carbon monoxide medium (COM) was used to cultivate and maintain the culture. The growth temperature was 37° C. COM is an undefined buffered medium initially pressurized to 10 psi (70 kPa) with N2/CO2 and then autoclaved for 15 minutes at 121° C. The medium contained per liter of distilled water: 25 ml mineral solution (Table 1), 10 ml trace metals solution (Table 2, 10 ml vitamin solution (Table 3), 1.0 g of yeast extract, 10 g of MES (2-[N-morpholino]ethanesulfonic acid), 0.001 g resazurin, 4.0 g cysteine.HCl, and 4.0 Na2S.9H2O; the initial pH of this medium was 6.1-6.3. The medium was prepared using strict anaerobic technique (Balch & Wolfe, 1976). Carbon monoxide was the sole substrate provided at 210 kPa (30 psi). Unless otherwise noted all growth experiments were conducted under a pressure of 30 psi with CO as the sole or primary substrate and were incubated horizontally to maximize gas diffusion into the medium. Standard inoculum size was about 2% (v/v) transferred from a stock culture that was growing in mid to late exponential phase, unless otherwise noted.
# (§4) Analytical methods. Growth was measured spectrophotometrically at 600 nm (Spectronic 20D; Milton Roy) in aluminum seal tubes (Balch & Wolfe, 1976). Acetate and ethanol were measured simultaneously by a gas chromatograph (GC) equipped with a flame ionization detector (FID) on a Varian 3400 equipped with a 2 m steel column packed with an 80/120 Carbopak B-DA/4% carbowax resin 20M (Supelco, Bellfonte, Pa.). The column, injector, and detector temperature were 155, 200, and 200° C. respectively. Helium was the carrier gas and the flow rate was set at 30 ml min^−1. Hydrogen ion concentration was measured by electrode.
# Ethanol tolerance. The effect of ethanol on CO metabolism and solvent production was investigated with strain P11. The initial maximum concentration at which strain P11 could survive was determined during the course of these studies. […] Liquid samples (1.0 mL) were extracted once the cells remained at stationary phase and stored frozen (−20° C.) until analyzed by GC and HPLC. After the maximum ethanol concentration for cell survival was determined semi-continuous batch culture experiments were conducted using 500 mL serum bottles containing between 100-200 mL of COM containing different concentrations of ethanol (20, 30, 40, and 50 g/L) to adapt strain P11 to high solvent conditions. The amended COM with ethanol was prepared by adding filter sterilized ethanol to pre-sterilized Balch tubes, and then purging with N/CO2 to remove oxygen. After the media was sterilized, the ethanol was then added to the appropriate concentrations. These bottles were inoculated with the P11 cells from the semi-continuous batch cultures that were already established above. Growth and pH were measured periodically. A portion of the medium extracted for those measurements was taken for analyses of ethanol and acetate concentrations.
# strain P11 [4] = assay: Metabolic inhibitor studies (FA/TFA) in CO medium; format: cell-based, Clostridium ragsdalei; conditions: for Ethanol production compared to the control strains: P11 in the presence of the inhibitor, identical conditions
# Method: as §3, §4
# Metabolic Inhibitor Studies. Filter sterilized anaerobic stock solutions of fluoroacetate (FA) and trifluoroacetate (TFA) (Sigma Chemical Co.) were prepared to final concentrations of 4.5M. Before preparation, the FA and TFA powders were allowed to sit overnight in small beakers in the anaerobic chamber to allow any trapped oxygen to diffuse from the powder. […] The inhibitors were usually added to the medium one day prior to inoculating with P11 to ensure anaerobicity was maintained. All additions were made anaerobically by syringe. During this study growth was measured periodically by spectroscopy. Toward the end of resting cell phase, liquid samples (1 mL) were taken and stored frozen (−20° C.) until analyzed by GC and HPLC.
# thermophilic clostridium = conditions: cited from earlier work
# [5] = test system: Clostridium ljungdahlii strain PETC; assay: Growth of reference strain PETC on substrates as sole carbon and energy sources; format: cell-based; conditions: strain PETC; growth on substrate as sole carbon and energy source; final OD600
# From the text: Organisms. Clostridium ljundahlii strain PETC was obtained from a fructose stock culture maintained by Dr. Ralph S. Tanner and was used as the reference control strain. Strain P11 was obtained from an anaerobic enrichment inoculated with fresh water sediment from the Duck Pond at the University of Oklahoma by a procedure described previously (Bryant, 1972) under an atmosphere of CO:N2:CO2 (75:15:10) and an initial pH of 6.0. The carbon monoxide oxidizing clostridium described within was named Clostridium ragsdalei. This bacterium was designated strain P11 and deposited with the American Type Culture Collection as strain ATCC BAA-622.
# as §1, §2
# [6] = iron increased tenfold compared to standard medium
compound,measurement,setting,value
"[Cu] [Cu, copper]",Acetate production on elimination of the metal,strain P11 [1],decreased acetate production
same,CO metabolism on elimination of the metal,strain P11 [1],limited CO metabolism
same,CO metabolism at increased level of the metal,strain P11 [1],stimulated CO metabolism
CCO [Ethanol],Growth with substrate,"[2]; Clostridium ragsdalei, malate and formate examined at pH 5.0-6.5",chemoorganotrophic growth was observed
same,MIC,"strain P11 [3]; Clostridium ragsdalei, P11, read-out: Minimum inhibitory concentration",35 mg/mL
same,Growth at the 50 g/L ethanol concentration,strain P11 [3]; adapted semi-continuous batch culture,≤ 0.55 OD units
same,Growth relative to the unamended control without ethanol,"strain P11 [3]; all ethanol concentrations, 15-35 g/L",Growth was retarded
same,Ethanol concentration at which the adapted culture functions fully,strain P11 [3]; culture adapted to ethanol,50 grams per liter
same,Highest ethanol concentration at which the adapted culture was established,"strain P11 [3]; semi-continuous batch culture, stepwise adaptation from 20 g/L",50 g/L
same,Ethanol concentration in which P11 remains viable and will grow,strain P11 [3]; statement in the description,at least 60 g/L
same,Ethanol concentration initially tolerated,"strain P11 [3]; strain P11, not adapted",up to 30 g/L
same,Ethanol concentration that inhibited strain P11,strain P11 [3]; upon initial isolation,30 grams per liter
"O=C(O)CF [FA, fluoroacetate]",Decrease of acetate production,strain P11 [4]; 30 mM FA and above,nearly ninety percent
same,Decrease of ethanol production,strain P11 [4]; 30 mM FA and above,fifty
same,Decrease of growth yield,strain P11 [4]; 30 mM FA and above,forty percent
same,Increase of ethanol to acetate ratio,strain P11 [4]; 30 mM FA and above,eighty percent
same,Growth yield (OD) or end products relative to the P11 control,strain P11 [4]; COM containing 20 mM FA,no significant differences
same,MIC,"strain P11 [4]; Clostridium ragsdalei, strain P11 in COM, CO substrate, read-out: MIC (minimum inhibitory concentration)",100 mM
same,Ethanol production compared to the control strains,strain P11 [4],increase of ethanol production
same,Acetate,strain P11 [4]; P11 with 15 mM FA,48.72 mM
same,Ethanol,strain P11 [4]; P11 with 15 mM FA,39.62 mM
same,Final OD 600,strain P11 [4]; P11 with 15 mM FA,0.741
same,Concentration shown to inhibit growth,thermophilic clostridium,50 mM
"[Mo] [Mo, molybdenum]",Acetate production on elimination of the metal,strain P11 [1],increased acetate production
same,CO metabolism on elimination of the metal,strain P11 [1],CO metabolism increased slightly
same,CO metabolism at increased level of the metal,strain P11 [1],stimulated CO metabolism
"[Ni] [Ni, nickel]",CO metabolism on elimination of the metal,strain P11 [1],limited CO metabolism
same,Increase in solvent to acid ratio on elimination of the metal,strain P11 [1],~400%
same,CO metabolism at increased level of the metal,strain P11 [1],stimulated CO metabolism
"O=C(O)C(F)(F)F [TFA, trifluoroacetate]",Growth yield,strain P11 [4]; COM containing 30 mM TFA,remained unchanged
same,Increase in acetate produced,strain P11 [4]; COM containing 30 mM TFA,52%
same,Increase in ethanol produced,strain P11 [4]; COM containing 30 mM TFA,126%
same,Increase of solvent to acid ratio,strain P11 [4]; COM containing 30 mM TFA,50%
same,Ethanol production compared to the control strains,strain P11 [4],increase of ethanol production
same,Acetate,strain P11 [4]; P11 with 60 mM TFA,34.58 mM
same,Ethanol,strain P11 [4]; P11 with 60 mM TFA,45.60 mM
same,Final OD 600,strain P11 [4]; P11 with 60 mM TFA,0.641
same,MIC (minimum inhibitory concentration),"strain P11 [4]; strain P11 in COM, CO substrate",150 mM
Inulin,"Substrate utilization, C. ragsdalei",[2],−
same,"Substrate utilization, C. ljungdahlii",[5],−
Iron [Fe],CO metabolism on elimination of the metal,strain P11 [1],limited CO metabolism
same,Increase in solvent to acid ratio on elimination of the metal,strain P11 [1],~300%
same,CO metabolism at increased level of the metal,strain P11 [1],stimulated CO metabolism
same,Concentration of ethanol produced,strain P11 [1]; [6],doubles the concentration of ethanol produced
same,Production of acetic acid,strain P11 [1]; [6],decreasing the production of acetic acid
Pectin,"Substrate utilization, C. ragsdalei",[2],−
same,"Substrate utilization, C. ljungdahlii",[5],−
Starch,"Substrate utilization, C. ragsdalei",[2],−
same,"Substrate utilization, C. ljungdahlii",[5],−
Trimethoxybenzoic acid,"Substrate utilization, C. ragsdalei",[2],−
same,"Substrate utilization, C. ljungdahlii",[5],−
